Experiments:
[1] = target: T1, PDE4A1 (Mus musculus, UniProt O89084); assay: Fission yeast 5FOA growth assay, strain expressing PDE4A1; format: cell-based, murine; settings: 5FOA growth screen; for 1 Assay (20 uM), PDE 4A1: 20 uM compound; for 2 Assay (2 uM), PDE 4A1: 2 uM compound
T1 construct: targets used in the assays are full-length proteins (as opposed to simply the catalytic domain); expressed in transfected cells; host or cells: Schizosaccharomyces pombe, gene integrated at the cgs2 locus
T1 sequence (O89084 1-610 isoform O89084-2): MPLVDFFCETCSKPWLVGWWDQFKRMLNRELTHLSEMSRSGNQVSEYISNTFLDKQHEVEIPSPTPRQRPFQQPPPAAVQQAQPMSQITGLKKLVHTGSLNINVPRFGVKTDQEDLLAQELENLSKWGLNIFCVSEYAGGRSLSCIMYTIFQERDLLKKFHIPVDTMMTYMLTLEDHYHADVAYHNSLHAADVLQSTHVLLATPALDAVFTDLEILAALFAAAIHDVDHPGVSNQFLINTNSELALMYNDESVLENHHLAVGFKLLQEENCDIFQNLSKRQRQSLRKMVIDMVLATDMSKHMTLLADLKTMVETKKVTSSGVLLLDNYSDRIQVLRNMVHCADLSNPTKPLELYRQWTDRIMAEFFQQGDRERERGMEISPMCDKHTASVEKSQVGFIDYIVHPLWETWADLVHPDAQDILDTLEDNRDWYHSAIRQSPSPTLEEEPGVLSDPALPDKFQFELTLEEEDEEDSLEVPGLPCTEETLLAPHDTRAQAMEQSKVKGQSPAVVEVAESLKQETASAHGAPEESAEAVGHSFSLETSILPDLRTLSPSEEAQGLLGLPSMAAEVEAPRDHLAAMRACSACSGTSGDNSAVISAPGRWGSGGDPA
Experimental: (§1) High throughput drug screens were carried out at the Broad Institute's Chemical Biology Program screening facility (Broad Institute, Cambridge, Mass.). Depending upon the strain, cultures were pregrown to exponential phase in EMM complete medium containing from 0.5 to 2.5 mM cAMP to repress fbp1-ura4 transcription. […] Starting cell concentrations ranged from 0.5×10^5 to 4×10^5 cells/ml depending on the screening strain. […] Other positive control dishes contained 5 mM cAMP in the 5FOA medium. Cultures were grown for 48 hours at 30° C., sealed in an airtight container with moist paper towels to prevent evaporation. Optical densities (OD600) of cultures were measured using a microplate reader. Bioinformatic analysis of the results to determine composite Z scores was performed as previously described^30, 31.
(§2) Cells were pregrown in EMM medium [MP Biomedicals (Solon, OH), 3% glucose, filter-sterilized to avoid carmelization, which would introduce variability into the optical density of the medium] containing from 0 mM to 2.5 mM cAMP (or either 0.5 mM or 1.0 mM cGMP). This was to repress expression of the fbp1-ura4 reporter prior to exposure of cells to 5FOA medium. Cells were grown at 30° C. to exponential phase (approximately 10^7 cells/ml). […] Starting cell concentrations ranged from 0.5×10^5 to 4×10^5 cells/ml depending on the screening strain. […] Other positive control dishes contained 5 mM cAMP in the 5FOA medium for PDEs that lack appropriate control compounds. Cultures were grown for 48 hours at 30° C., sealed in an airtight container with moist paper towels to prevent evaporation. Optical densities (OD600) of cultures were measured using a microplate reader. Bioinformatic analysis of the results to determine composite Z scores was performed as previously described (1, 3).

[2] = target: T2, PDE4B3 (Mus musculus, UniProt Q8VBU5); assay: Fission yeast 5FOA growth assay, strain expressing PDE4B3; format: cell-based, murine; settings: 5FOA growth screen; for 1 Assay (20 uM), PDE 4B3: 20 uM compound; for 2 Assay (2 uM), PDE 4B3: 2 uM compound
T2 construct: targets used in the assays are full-length proteins (as opposed to simply the catalytic domain); expressed in transfected cells; host or cells: Schizosaccharomyces pombe, gene integrated at the cgs2 locus
T2 sequence (Q8VBU5 1-721): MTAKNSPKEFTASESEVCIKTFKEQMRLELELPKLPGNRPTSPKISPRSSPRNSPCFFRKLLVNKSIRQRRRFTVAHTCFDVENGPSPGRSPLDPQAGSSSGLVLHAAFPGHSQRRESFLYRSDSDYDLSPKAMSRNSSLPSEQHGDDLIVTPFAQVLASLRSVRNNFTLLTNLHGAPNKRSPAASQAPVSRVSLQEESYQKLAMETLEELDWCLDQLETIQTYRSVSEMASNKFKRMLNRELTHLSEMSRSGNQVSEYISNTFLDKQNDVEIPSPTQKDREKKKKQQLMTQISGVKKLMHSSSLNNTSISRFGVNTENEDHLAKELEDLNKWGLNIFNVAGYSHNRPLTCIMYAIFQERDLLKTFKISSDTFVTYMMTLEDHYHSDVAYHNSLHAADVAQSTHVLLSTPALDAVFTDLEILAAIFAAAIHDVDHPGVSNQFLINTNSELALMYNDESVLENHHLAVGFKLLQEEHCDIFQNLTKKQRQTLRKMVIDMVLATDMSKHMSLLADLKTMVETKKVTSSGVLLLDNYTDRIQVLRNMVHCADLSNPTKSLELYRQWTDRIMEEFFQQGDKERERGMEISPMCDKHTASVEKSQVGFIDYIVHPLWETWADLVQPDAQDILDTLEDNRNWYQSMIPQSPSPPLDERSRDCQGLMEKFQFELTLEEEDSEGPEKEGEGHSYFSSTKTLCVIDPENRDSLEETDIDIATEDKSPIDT
Experimental: as §1, §2

SMILES | 1 Assay (20 uM), PDE 4A1 [1] | 1 Assay (20 uM), PDE 4B3 [2] | 2 Assay (2 uM), PDE 4A1 [1] | 2 Assay (2 uM), PDE 4B3 [2]
Cc1ccc2c(c1)c1nc3ccccc3nc1n2C(C)C [Compound 41] | 106.90 | 200.51 | – | –
COC(=O)C1=C(C)N(c2ccccc2)/C(=C/c2cccs2)C1=O [2008, K19] | −0.46 ND ND ND ND | −0.61 ND ND ND ND | – | –
COC(=O)C1=C(C)N(C2CCCCC2)C(=O)/C1=C\c1cccs1 [Compound 22] | 98.84 | 70.26 | 27.01 | 37.54
COC(=O)C1=C(C)N(c2ccc(C(C)C)cc2)C(=O)/C1=C\c1cccs1 [2008, O19] | 0.80 ND ND ND ND | −2.99 ND ND ND ND | – | –
COC(=O)C1=C(C)N(c2ccccc2F)C(=O)/C1=C\c1cccc(OC)c1O [2008, C21] | 18.97 ND ND ND ND | 24.16 ND ND ND ND | – | –
COC(=O)C1=C(C)N(c2ccccc2Cl)C(=O)/C1=C\c1cccs1 [Compound 27] | 64.18 | −0.26 | 17.41 | 22.05

From US20100179158A1, “INHIBITORS OF CYCLIC AMP PHOSPHODIESTERASES” (priority 2007, published 2010)
